Read-outs that look alike come from different tables or passages of the source.
Columns and labels:
[1] = system: IL-23-stimulated Kit225 T cells with STAT-dependent luciferase reporter; assay: Kit225 T cell assay, STAT-dependent luciferase reporter, IL-23 stimulated; assay type: cell-based, human; settings: read-out: IL-23 Kit225 Reporter, LE (IC50)
Procedure, shortened: (§1)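 Kit225 T cells carrying a stably integrated STAT-dependent luciferase reporter, in RPMI with 10% heat-inactivated FBS, stimulated with 20 ng/mL human recombinant IL-23 or 200 U/mL human recombinant IFNα for 5-6 h. Luciferase expression read by Steady-Glo luminescence.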

[2] = system: IFNα-stimulated Kit225 T cells with STAT-dependent luciferase reporter; assay: Kit225 T cell assay, STAT-dependent luciferase reporter, IFNα stimulated; assay type: cell-based, human; settings: 5-6 hours, read-out: IFNa Kit225 Reporter, LE (IC50)
Procedure, shortened: as §1

[3] = Homo sapiens, KIT225, 20 ng/mL human recombinant IL-23, 5-6 hours
[4] = Homo sapiens, KIT225, 200 U/mL human recombinant IFNα
[5] = 20 ng/mL human recombinant IL-23, 5-6 hours
[6] = 200 U/mL human recombinant IFNα

Row | SMILES | IC50 [1, 3] [nM] | IC50 [2, 4] [nM] | IC50 [1, 5] [nM] | IC50 [2, 6] [nM]
1 | O=C(NC1CCC1)c1cnc2c3c(c(Nc4cccn(-c5ccccn5)c4=O)nn12)OCCN3 [Example 239, N-Cyclobutyl-6-((2-oxo-2H-[1,2′-bipyridin]-3-yl)amino)-9,10-dihydro-8H-imidazo[1′,2′:1,6]pyridazino[4,5-b][1,4]oxazine-3-carboxamide] | 210 | 100 |  | 
2 | CNc1cc(Nc2cc(C)cn(-c3ccc(C)nn3)c2=O)nn2c(C(=O)NC3CCC3)cnc12 [Example 92] |  |  | 420 | 620
3 | CNc1cc(Nc2cccn(-c3ccc(F)cc3)c2=O)nn2c(C(=O)NC3CC3)cnc12 [Example 10] |  |  | 150 | 120
4 | CCNC(=O)c1cnc2c(NC)cc(Nc3cccn(C)c3=O)nn12 [Example 210] |  |  | 220 | 390
5 | CNc1cc(Nc2cccn(-c3ccc(C(=O)N(C)C)cn3)c2=O)nn2c(C(=O)N[C@@H]3C[C@@H]3F)cnc12 [Example 257, 6-((5′-(Dimethylcarbamoyl)-2-oxo-2H-[1,2′-bipyridin]-3-yl)amino)-N-((1R,2S)-2-fluorocyclopropyl)-8-(methylamino)imidazo[1,2-b]pyridazine-3-carboxamide] | 180 | 70 |  | 
6 | O=C(N[C@H]1C[C@@H]1F)c1cnc2c3c(c(Nc4cccn(-c5ccccn5)c4=O)nn12)OCCN3 [Example 241] | 140 | 90 |  | 
7 | CNc1cc(Nc2cccn(-c3cnc(C(=O)N(C)C)cn3)c2=O)nn2c(C(=O)NCC(C)(C)CO)cnc12 [compound 262] | 90 | 110 |  | 
8 | CCC(C)NC(=O)c1cnc2c(NC)cc(Nc3cccn(-c4cccnn4)c3=O)nn12 (centres unmarked) [Example 105] |  |  | 320 | 90
9 | CCCCn1cc(Cl)cc(Nc2cc(NC)c3ncc(C(=O)NC4CC4)n3n2)c1=O [Example 244] | 290 | 120 |  | 
10 | CNc1cc(Nc2cc(C)cn(-c3ccc(C)nn3)c2=O)nn2c(C(=O)NC3CC3)cnc12 [Example 91] |  |  | 230 | 150
11 | CNc1cc(Nc2cccn(-c3cccnn3)c2=O)nn2c(C(=O)NC3CCC3)cnc12 [Example 104] |  |  | 200 | 80
12 | CNc1cc(Nc2cccn(-c3ccc(N4CCOCC4)cc3)c2=O)nn2c(C(=O)NC3CC3F)cnc12 (centres unmarked) [Example 147] |  |  | 30 | 20
13 | CNc1cc(Nc2cccn(-c3ncc(F)cn3)c2=O)nn2c(C(=O)NC3CC3)cnc12 [Example 171] |  |  | 210 | 140
14 | O=C(NC1CC1)c1cnc2c3c(c(Nc4cccn(-c5ccccn5)c4=O)nn12)OCCN3 [Example 240] | 60 | 210 |  | 
15 | CNc1cc(Nc2cccn(-c3ccc(C)nn3)c2=O)nn2c(C(=O)NC(C)COC)cnc12 (centres unmarked) [Example 234] |  |  | 290 | 140
16 | CNc1cc(Nc2cccn(-c3ccc(C4CC4)nn3)c2=O)nn2c(C(=O)N[C@@H]3C[C@@H]3F)cnc12 [Example 98] |  |  | 40 | 20
17 | CNc1cc(Nc2cccn(C3CCC3)c2=O)nn2c(C(=O)NC3CC3)cnc12 [Example 228] |  |  | 210 | 100
18 | CNc1cc(Nc2cc(F)cn(C)c2=O)nn2c(C(=O)NC3(C#N)CC3)cnc12 [Example 11] |  |  | 310 | 260
19 | CNc1cc(Nc2cccn(-c3ccc(C(F)F)cc3)c2=O)nn2c(C(=O)NC3CC3)cnc12 [Example 18] |  |  | 480 | 150
20 | CNc1cc(Nc2cccn(-c3ncc(F)cn3)c2=O)nn2c(C(=O)NC3CCCC3)cnc12 [Example 172] |  |  | 260 | 180
21 | CNc1cc(Nc2cccn(-c3cncc(C)n3)c2=O)nn2c(C(=O)NCC(C)(C)CO)cnc12 [Example 238] |  |  | 60 | 530
22 | CNc1cc(Nc2cccn(-c3cccc(F)c3)c2=O)nn2c(C(=O)NC3(C#N)CC3)cnc12 [Example 53] |  |  | 170 | 80
23 | CNc1cc(Nc2cccn(-c3ccc(C(C)(C)O)cc3)c2=O)nn2c(C(=O)NC3(C#N)CC3)cnc12 [Example 27] |  |  | 660 | 450
24 | CNc1cc(Nc2cccn(-c3ccc(C(C)(C)O)cc3)c2=O)nn2c(C(=O)NC3CC3)cnc12 [Example 26] |  |  | 270 | 110
25 | CNc1cc(Nc2cccn(-c3cccc(F)n3)c2=O)nn2c(C(=O)NCc3ccccn3)cnc12 [Example 193] |  |  | 140 | 330

Row | SMILES | IC50 [1, 3] [nM] | IC50 [2, 4] [nM] | IC50 [1, 5] [nM] | IC50 [2, 6] [nM]
26 | CNc1cc(Nc2cccn(-c3ccccn3)c2=O)nn2c(C(=O)NC3CCC3)cnc12 [Example 34] |  |  | 60 | 50
27 | CCC(=O)N1CCC(n2cccc(Nc3cc(NC)c4ncc(C(=O)NC5CC5)n4n3)c2=O)CC1 [Example 249] | 500 | 250 |  | 
28 | CCNC(=O)c1cnc2c(NC)cc(Nc3cccn(-c4cccc(F)n4)c3=O)nn12 [Example 67] |  |  | 70 | 140
29 | CCNc1cc(Nc2cccn(C)c2=O)nn2c(C(=O)NC3CCC3)cnc12 [Example 232] |  |  | 480 | 270
30 | CNc1cc(Nc2cccn(-c3ccc(C(F)(F)F)cc3)c2=O)nn2c(C(=O)NC3(C#N)CC3)cnc12 [Example 137] |  |  | 290 | 140
31 | CNc1ccc(-n2cccc(Nc3cc(NC)c4ncc(C(=O)NC5CC5)n4n3)c2=O)cn1 [Example 206] |  |  | 490 | 380
32 | CNc1cc(Nc2cccn(C3CCN(C(C)=O)CC3)c2=O)nn2c(C(=O)NC3C[C@@H]3F)cnc12 (some centres unmarked) [Example 251] | 350 | 400 |  | 
33 | CNc1cc(Nc2cccn(-c3ccc(C(=O)N(C)C)cc3)c2=O)nn2c(C(=O)N[C@@H]3C[C@@H]3F)cnc12 [compound 266] | 120 | 110 |  | 
34 | CNc1cc(Nc2cc(F)cn(-c3ccc(C)nn3)c2=O)nn2c(C(=O)NC3CC3)cnc12 [Example 94] |  |  | 40 | 50
35 | CNc1cc(Nc2cccn(-c3ccccc3)c2=O)nn2c(C(=O)NC3(C#N)CC3)cnc12 [Example 120] |  |  | 200 | 70
36 | CNc1cc(Nc2cccn(-c3nc4ccccc4[nH]3)c2=O)nn2c(C(=O)NC3CC3)cnc12 [Example 223] |  |  | 1180 | 240
37 | CNc1cc(Nc2cc(F)cn(-c3ccccn3)c2=O)nn2c(C(=O)N[C@@H]3C[C@@H]3F)cnc12 [Example 151] |  |  | 30 | 20
38 | CCN(C)C(=O)c1ccc(-n2cccc(Nc3cc(NC)c4ncc(C(=O)N[C@@H]5C[C@@H]5F)n4n3)c2=O)nc1 [compound 263] | 160 | 50 |  | 
39 | CNc1cc(Nc2cccn(-c3ccccc3F)c2=O)nn2c(C(=O)NC3(C#N)CC3)cnc12 [Example 156] |  |  | 80 | 60
40 | CNc1cc(Nc2cccn(-c3ccccc3)c2=O)nn2c(C(=O)NC3(C#N)CCC3)cnc12 [Example 148] |  |  | 120 | 280
41 | CNc1cc(Nc2cccn(-c3ccc(F)nc3)c2=O)nn2c(C(=O)NC3(C#N)CC3)cnc12 [Example 28] |  |  | 600 | 300
42 | CNc1cc(Nc2cccn(-c3ccncc3)c2=O)nn2c(C(=O)NC3CC3)cnc12 [Example 128] |  |  | 440 | 240
43 | CNc1cc(Nc2cccn(C3CC3)c2=O)nn2c(C(=O)NC3(C#N)CC3)cnc12 [Example 45] |  |  | 370 | 200
44 | CNc1cc(Nc2cccn(-c3ccccn3)c2=O)nn2c(C(=O)NC3CCC(O)C3(C)C)cnc12 (centres unmarked) [Example 236] |  |  | 850 | 350
45 | CNc1cc(Nc2cc(F)cn(CC3CC3)c2=O)nn2c(C(=O)NC3CC3)cnc12 [Example 15] |  |  | 190 | 270
46 | CNc1cc(Nc2cccn(C)c2=O)nn2c(C(=O)NC(C)C)cnc12 [Example 209] |  |  | 180 | 330
47 | CNc1cc(Nc2cc(Cl)cn(C)c2=O)nn2c(C(=O)NC3(C#N)CC3)cnc12 [Example 23] |  |  | 70 | 20
48 | CNc1cc(Nc2cccn(-c3ccc(C(=O)N4CCCC4)cn3)c2=O)nn2c(C(=O)N[C@@H]3C[C@@H]3F)cnc12 [compound 265] | 40 | 60 |  | 
49 | CNc1cc(Nc2cccn(-c3ncc(F)cn3)c2=O)nn2c(C(=O)NC3CCC3)cnc12 [Example 173] |  |  | 50 | 50
